Legend:
[1] = test system: differentiated hiPSCs in the printed heart; test: Calcium traces of the printed heart, first experiment (FIG. 9); assay type: cell-based, human; details: complex printed heart (FIG. 9)
hChaMPs [2] = test: Calcium transients in hChaMPs (Fluo-4 AM), drug response; assay type: cell-based, human
Experimental: Calcium movement in hChaMPs was recorded after recovery from lactate treatment using a DMi8 fluorescence microscope (Leica, Wetzlar, Germany). hChaMPs were first cultured with 5 μM Fluo-4 acetoxymethyl ester for 30 min at 37° C. and then washed with Tyrode's salt solution for another 30 min at 37° C. After that, the plates with hChaMPs were moved onto the microscope stage and covered with a heating plate to maintain the temperature at 37° C. Fluo-4 AM intensity was recorded at a frame rate of 6.90 Hz with 30 ms exposure time. The acquired data was processed by Fiji and a custom-written script in MATLAB (MathWorks). To generate the calcium traces, background signals of nonactive regions were subtracted from fluorescence signals of beating sites and then normalized against the baseline intensity. The effects of ionotropic drugs on calcium activity of hChaMPs were also analyzed by incubating Fluo-4 AM-treated hChaMPs with 1 μM Isoproterenol or 0.5 μM Verapamil for 10 min at 37° C. prior to being imaged. Calcium transients are presented as normalized intensity (f/f0) over time, along with the average peak amplitude and the average interspike interval.

hChaMP [3] = test: Optical mapping of voltage in hChaMP (di-4-ANEPPS); assay type: cell-based, human; details: 1 μM (FIG. 35B)
Experimental: The hChaMP was immersed in a 10 μM solution of the voltage-sensitive dye di-4-ANEPPS in Krebs-Ringer Buffer for 20 min. After this incubation, half of the dye solution was removed and replaced with RPMI+B27 with insulin media. After 2-5 min stabilization, hChaMPs were excited with a two diode-pumped, continuous-excitation green laser (532 nm, 1 W), and fluorescence intensity was recorded for 15 seconds using 14-bit, 80×80-pixel resolution cameras at 500 frames per second. In some hChaMPs, pacing was provided at 1 and 2 Hz via a bipolar electrode and optical mapping movies were recorded during pacing. For drug testing, hChaMPs were treated with 1 μM of isoproterenol and optical mapping movies were recorded with and without pacing.
Optical action potential duration (APD) was measured at 80% repolarization, and two-dimensional (2D) APD maps were constructed to reveal the spatial distribution of APD on the hChaMP surface. Local conduction velocity (CV) was calculated as described previously. Specifically, the distributions of activation times (AT), measured at (dV/dt)max, for the spatial regions of 3×3 pixels were fitted with the plane, and gradients of activation times gx and gy were calculated for each plane along the x- and y-axes, respectively. The magnitude of the local CV was calculated for each pixel as (gx^2+gy^2)^−1/2. Mean values for CV were calculated for the visible surface. […]

hChaMP [4] = test: Pressure-volume catheter measurement in hChaMP; assay type: cell-based, human; details: 1 μM versus spontaneous contraction, 5 contraction cycles (FIGS. 44A, 44B)
Experimental: Pulse pressure and stroke volume of hChaMPs were measured using an ADV500 PV system with a PV catheter. The hChaMP was transferred to a 10 cm dish with 20 mL RPMI plus B-27 Supplement with insulin on a heating plate pre-heated to 37° C. to ensure the working temperature was always above 30° C. The PV catheter was inserted and positioned close to the apex of hChaMP to obtain clear pressure and volume signals, and the vessel through which the catheter was inserted was tied off to stabilize the construct. Isoproterenol was given by adding 20 μL of 1 mM solution into the dish to achieve the final concentration of 1 μM. […] The volume reading was further calibrated by conducting a dye dilution test. Briefly, acellular hChaMPs were first monitored by the ADV500 PV system while being compressed and released by 1.45 mm, 2.9 mm, and 4.35 mm from the side. […] Next, the hChaMP was compressed and released by 1.45 mm depth from the side for 3 times, and the hChaMP was then removed and the bulk medium was collected and examined by a Cytation 3 microplate reader at 524 nm for absorbance from which the displaced volume could be determined. […]
The acquired data was post-processed and analyzed by a custom-written script in MATLAB. […] To examine the stroke work generated by the hChaMPs, 5 random contraction cycles were used for creating PV loops and the stroke work was determined by the area in the loops.

hChaMPs [5] = test: Contractility video analysis of hChaMPs; assay type: cell-based; details: Homo sapiens; at least 3 different areas across 2 hChaMPs (FIG. 38); read-out: EC50, beat rate by contractility
Excerpt: Beating videos of hChaMPs were obtained at 4× on an Axiovert CFL 40 microscope at 8.7 frames per second. Beating rates (contraction, relaxation, and beats per minute) were obtained using an open source automated video analysis algorithm^4 with a macroblock size of 100×100 pixels and a maximum movement detection of 50 pixels to accommodate the robust movement of the tissue. For generation of a heat map of contractility over an entire hChaMP, a macroscale video was used with the macroblock size set to 25×25 pixels in the video analysis algorithm with a maximum movement detection of 20 pixels due to the lower magnification.

printed heart = test: Fluid pressure in ventricular-like chamber of the printed heart (FIG. 11A); assay type: cell-based; details: versus spontaneous mechanical activity of the same chamber
Excerpt: FIG. 11A is a graph of pressure dynamics of an example printed heart using bioink described herein. […] The relatively flat line is the system baseline without contraction. Other clinically-important, physiologically complex mechanical parameters can also be measured. FIG. 11B is an optical map of an example printed heart using bioink described herein.

SMILES: COc1ccc(CCN(C)CCCC(C#N)(c2ccc(OC)c(OC)c2)C(C)C)cc1OC (stereo not drawn) [verapamil]
- beating rate with respect to control [1]: slow
- calcium handling amplitude (hChaMPs [2]; 0.5 μM, 10 min at 37° C.): decreased in amplitude

SMILES: Cn1c(=O)c2c(ncn2C)n(C)c1=O [caffeine]
- beating rate with respect to control [1]: accelerate

SMILES: CC(C)NCC(O)c1ccc(O)c(O)c1 (stereo not drawn) [isoproterenol]
- response of electrical activity to drug stimulation (hChaMP [3]): responded in a dramatic and predicted fashion
- calcium handling frequency (hChaMPs [2]; 1 μM, 10 min at 37° C.): increased in frequency
- EC50 (hChaMPs [2]; Homo sapiens, 5 different areas across two hChaMPs (FIG. 31), read-out: EC50, beat rate by calcium transient activity): 9 nM
- stroke work (hChaMP [4]): reduced
- EC50 (hChaMPs [5]): 9 nM

SMILES: Cc1ccc2c(c1)C(=O)C1(O)CCN(c3ccccc3)C1=N2 (stereo not drawn) [blebbistatin]
- chamber pressure amplitude (printed heart): inhibited pressure amplitudes

Reference: patent US20220031848A1, “BIOINK FOR 3D DEPOSITION” (Regents of the University of Minnesota, priority 2018, published 2022)
